Assay results as given in patent US20230219962A1, “PYRAZOLO[4,3-d]PYRIMIDINE DERIVATIVES AND METHODS OF USE THEREOF FOR THE TREATMENT OF CELLULAR PROLIFERATIVE DISORDERS” (Merck Sharp & Dohme LLC, priority 2020, published 2023).
pEC50: −log10 of the molar value.

What was measured:
hTLR7 = biological target: T1, hTLR7 (Homo sapiens, UniProt Q9NYK1); assay: Human TLR7 Reporter Assay; assay type: cell-based; conditions: HEK-Blue hTLR7 cells, 16 hours, normalized to CL097 (6 μM) and DMSO
T1 construct: host or cells: HEK-Blue hTLR7 cells (HEK293-derived, own knowledge)
T1 sequence (Q9NYK1 27-1049): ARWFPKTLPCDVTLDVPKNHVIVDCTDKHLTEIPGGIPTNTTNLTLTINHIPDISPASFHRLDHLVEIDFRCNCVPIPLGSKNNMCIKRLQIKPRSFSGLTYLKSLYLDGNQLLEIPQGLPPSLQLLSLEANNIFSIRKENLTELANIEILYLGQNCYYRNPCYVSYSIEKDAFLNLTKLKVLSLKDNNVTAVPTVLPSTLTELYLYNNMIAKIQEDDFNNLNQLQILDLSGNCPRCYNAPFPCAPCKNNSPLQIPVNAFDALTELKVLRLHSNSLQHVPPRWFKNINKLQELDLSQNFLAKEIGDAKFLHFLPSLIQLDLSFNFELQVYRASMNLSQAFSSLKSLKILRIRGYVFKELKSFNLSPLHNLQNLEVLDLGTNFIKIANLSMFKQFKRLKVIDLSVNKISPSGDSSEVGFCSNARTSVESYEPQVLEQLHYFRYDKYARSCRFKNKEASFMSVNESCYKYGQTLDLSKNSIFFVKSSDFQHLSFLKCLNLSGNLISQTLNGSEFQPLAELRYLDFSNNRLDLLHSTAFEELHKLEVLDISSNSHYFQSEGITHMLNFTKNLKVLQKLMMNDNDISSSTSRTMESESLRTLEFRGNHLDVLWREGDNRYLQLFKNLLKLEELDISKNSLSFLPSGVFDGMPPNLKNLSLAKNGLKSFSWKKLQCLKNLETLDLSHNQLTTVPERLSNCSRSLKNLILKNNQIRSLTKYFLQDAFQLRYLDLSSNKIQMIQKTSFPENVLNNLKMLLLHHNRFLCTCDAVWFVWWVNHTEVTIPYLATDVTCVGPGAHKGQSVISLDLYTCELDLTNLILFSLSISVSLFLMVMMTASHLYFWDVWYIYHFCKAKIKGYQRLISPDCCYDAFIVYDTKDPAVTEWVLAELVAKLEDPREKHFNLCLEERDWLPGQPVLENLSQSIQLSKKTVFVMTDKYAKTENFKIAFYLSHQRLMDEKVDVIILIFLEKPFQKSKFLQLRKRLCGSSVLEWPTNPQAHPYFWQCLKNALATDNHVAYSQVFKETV
Method: (§1) HEK-Blue™ hTLR7 cells (Invivogen, San Diego, Calif.) were maintained at 37° C./5% CO2/90% relative humidity in Dulbecco's Modified Eagle's Medium with 10% fetal bovine serum, 100 units/mL penicillin, 100 μg/mL streptomycin, 100 μg/mL normocin, 10 μg/mL blasticidin, and 100 μg/mL zeocin. HEK-Blue™ hTLR7 cells were maintained at 10-90% confluence and used before passage 20. For this assay, test compounds were dissolved in DMSO, and 10-point serial 3-fold dilution series in DMSO were prepared in Echo Qualified 384-well Polypropylene Microplates (Labcyte, San Jose, Calif.). Assay plates (384-well flat, clear bottom, black polystyrene TC-treated microtiter plates; Corning, Corning, N.Y.) were prepared by dispensing 150 nL of test compounds, high control (CL097; Invivogen, San Diego, Calif.), and low control (DMSO) by ECHO acoustic dispenser (Labcyte, San Jose Calif.) followed by addition of 5 μL of HEK-Blue™ Detection assay media (Invivogen, San Diego, Calif.). HEK-Blue™ hTLR7 cells in HEK-Blue™ Detection assay media (20,000 cells per well in 45 μL of media) were added to the assay plate and incubated for 16 hours at 37° C./5% CO2/90% relative humidity. For detection, assay plates were removed from the incubator, allowed to cool to ambient temperature, centrifuged at 200×g for 1 minutes, and read with an EnSpire Multimode Plate Reader (Perkin Elmer, Waltham, Mass.) for absorbance at 620 nm. Test compound effects were normalized to the window defined by the controls, CL097 (6 μM), and DMSO. Calculated % effects were fit using a 4-parameter algorithm, and EC50 was reported.

hTLR8 = biological target: T2, hTLR8 (Homo sapiens, UniProt Q9NR97); assay: Human TLR8 Reporter Assay; assay type: cell-based; conditions: HEK-Blue hTLR8 cells, 16 hours, normalized to tl8-506 (1 μM) and DMSO
T2 construct: host or cells: HEK-Blue hTLR8 cells (HEK293-derived, own knowledge)
T2 sequence (Q9NR97 27-1041): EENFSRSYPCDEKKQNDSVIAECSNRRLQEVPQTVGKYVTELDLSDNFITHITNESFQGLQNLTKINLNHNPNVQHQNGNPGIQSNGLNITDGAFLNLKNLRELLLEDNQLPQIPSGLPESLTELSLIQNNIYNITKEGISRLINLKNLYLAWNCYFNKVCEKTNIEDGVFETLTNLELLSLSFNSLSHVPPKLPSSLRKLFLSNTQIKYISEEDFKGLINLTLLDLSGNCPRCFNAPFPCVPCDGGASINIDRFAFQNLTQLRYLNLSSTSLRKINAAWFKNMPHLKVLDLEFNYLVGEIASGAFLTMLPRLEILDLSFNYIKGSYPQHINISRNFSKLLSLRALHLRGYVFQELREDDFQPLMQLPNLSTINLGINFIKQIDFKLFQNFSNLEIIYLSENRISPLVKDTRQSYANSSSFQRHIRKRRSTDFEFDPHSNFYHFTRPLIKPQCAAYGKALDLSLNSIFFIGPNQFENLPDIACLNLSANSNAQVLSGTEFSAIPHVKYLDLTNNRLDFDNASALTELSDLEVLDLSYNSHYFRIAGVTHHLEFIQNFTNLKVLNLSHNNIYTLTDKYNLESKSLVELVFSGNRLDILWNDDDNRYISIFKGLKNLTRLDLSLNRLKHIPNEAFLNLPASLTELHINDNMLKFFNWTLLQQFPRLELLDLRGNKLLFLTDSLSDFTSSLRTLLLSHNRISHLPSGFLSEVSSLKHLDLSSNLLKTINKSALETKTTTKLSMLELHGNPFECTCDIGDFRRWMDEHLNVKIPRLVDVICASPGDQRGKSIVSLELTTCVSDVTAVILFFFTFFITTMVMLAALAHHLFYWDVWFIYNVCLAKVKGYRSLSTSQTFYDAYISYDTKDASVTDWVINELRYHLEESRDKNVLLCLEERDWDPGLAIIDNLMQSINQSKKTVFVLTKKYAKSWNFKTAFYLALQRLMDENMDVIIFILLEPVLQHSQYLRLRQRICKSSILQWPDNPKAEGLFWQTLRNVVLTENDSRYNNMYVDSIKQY
Method: as §1, with “hTLR8” for “hTLR7”, “(tl8-506;” for “(CL097;”, “tl8-506 (1” for “CL097 (6”

pEC50 (hTLR7) | pEC50 (hTLR8) | Compound
6.64 | 6.46 | CCCCNc1nc(N)nc2cn(Cc3ccc(N4CCNCC4)cc3OC)nc12 [Compound 58]
7.13 | 6.30 | CCCCNc1nc(N)nc2cn(Cc3cccnc3OC)nc12 [Compound 100]
5.85 | < 5.00 | CCCCNc1nc(N)nc2cn(C(C)c3ccccc3OC)nc12 (stereo not drawn) [Compound 102]
6.07 | 5.41 | CCNc1nc(N)nc2cn(Cc3c(OC)cccc3OC)nc12 [Compound 44]
7.51 | 6.42 | C=CCN(C)Cc1cc(OC)c(Cn2cc3nc(N)nc(N[C@@H](C)CCC)c3n2)c(OC)c1 [Compound 183]
7.37 | 7.04 | C=CCN(C)Cc1cc(OC)c(Cn2cc3nc(N)nc(N[C@H](CO)CCC)c3n2)c(OC)c1 [Compound 161]
5.65 | 6.06 | CCCCNc1nc(N)nc2cn(Cc3cc(CN4CC(CN)C4)ccc3OC)nc12 [Compound 151]
6.52 | 6.04 | CCCCNc1nc(N)nc2cn(Cc3c(OC)cccc3OCCCCO)nc12 [Compound 208]
6.29 | 6.27 | CCCCNc1nc(N)nc2cn(Cc3ccc(C4CCCN4)cc3)nc12 (stereo not drawn) [Compound 204]
5.94 | 5.20 | CCCCNc1nc(N)nc2cn(Cc3cncn3C)nc12 [Compound 180]
5.07 | < 4.52 | COc1cccc(OC)c1Cn1cc2nc(N)nc(NCCCO)c2n1 [Compound 47]
5.14 | < 4.52 | COc1cccc(OC)c1Cn1cc2nc(N)nc(NCC(C)O)c2n1 (stereo not drawn) [Compound 49]
6.95 | 5.95 | CCCCNc1nc(N)nc2cn(Cc3sc(C)nc3C)nc12 [Compound 175]
5.65 | 4.94 | CCCCNc1nc(N)nc2cn(Cc3c(OC)cc(CNC(=O)C4CCC(CN5C(=O)CC(SC[C@H](N)C(=O)O)C5=O)CC4)cc3OC)nc12 (stereo partly drawn) [Compound 92]
6.29 | 6.46 | CCCCNc1nc(N)nc2cn(Cc3c(OC)cc(N4CCNCC4)cc3OC)nc12 [Compound 64]
4.70 | 4.81 | CCC[C@@H](CO)Nc1nc(N)nc2cn(Cc3c(OC)cc(CN(C)CCCN)cc3OC)nc12 [Compound 210]
6.58 | < 5.00 | CCCC(Nc1nc(N)nc2cn(Cc3c(OC)cccc3OC)nc12)C(F)(F)F (stereo not drawn) [Compound 124]

pEC50 (hTLR7) | pEC50 (hTLR8) | Compound
6.40 | < 4.52 | CCCCC(CCO)Nc1nc(N)nc2cn(Cc3ccccc3OC)nc12 (stereo not drawn) [Compound 17]
6.60 | 5.76 | CCCCNc1nc(N)nc2cn(Cc3nocc3C)nc12 [Compound 140]
6.07 | < 4.52 | COc1cccc(OC)c1Cn1cc2nc(N)nc(NCC(C)C)c2n1 [Compound 50]
6.50 | < 4.52 | CCCCC(CCC)Nc1nc(N)nc2cn(Cc3ccccc3OC)nc12 (stereo not drawn) [Compound 18]
5.82 | 4.84 | CCCCNc1nc(N)nc2cn(Cc3c(OC)cc(NCCN4C(=O)C=CC4=O)cc3OC)nc12 [Compound 134]
6.28 | 6.63 | CCCCNc1nc(N)nc2cn(Cc3c(OC)cc(C(C)N)cc3OC)nc12 (stereo not drawn) [Compound 214]
5.81 | 5.35 | CCCCNc1nc(N)nc2cn(Cc3nc(C)no3)nc12 [Compound 170]
5.84 | 5.08 | CCCCNc1nc(N)nc2cn(Cc3ncnn3C)nc12 [Compound 174]
6.21 | 5.14 | CCCCNc1nc(N)nc2cn(Cc3ccc(C4CCNC4)cc3OC)nc12 (stereo not drawn) [Compound 237]
7.29 | 6.26 | CCCCNc1nc(N)nc2cn(Cc3ncccc3OC)nc12 [Compound 8]
6.82 | 5.90 | CCCCNc1nc(N)nc2cn(Cc3cnccc3OC)nc12 [Compound 101]
6.36 | < 4.52 | CCCCC(CCC)Nc1nc(N)nc2cn(Cc3ccccc3OC)nc12 (stereo not drawn) [Compound 19]
5.47 | 5.36 | CCCCNc1nc(N)nc2cn(Cc3c(OC)ccc(CN4C(=O)C=CC4=O)c3OC)nc12 [Compound 95]
6.18 | 5.31 | CCCCNc1nc(N)nc2cn(Cc3ccccc3OC)nc12 [Compound 1]
6.97 | 7.40 | CCC[C@@H](CO)Nc1nc(N)nc2cn(Cc3c(OC)cc(CN(C)C)cc3OC)nc12 [Compound 199]
6.28 | 5.35 | CCCCNc1nc(N)nc2cn(Cc3c(OC)cc(NCCN)cc3OC)nc12 [Compound 114]
